Legend:
[1] = biological target: Cyclin-dependent kinase 9 (Homo sapiens) (UniProt P50750); conditions: Compound concentration 1000.0 nM
[2] = biological target: Serine/threonine-protein kinase ICK (Homo sapiens) (UniProt Q9UPZ9); conditions: Compound concentration 1000.0 nM
[3] = biological target: Serine/threonine-protein kinase D2 (Homo sapiens) (UniProt Q9BZL6); conditions: Compound concentration 1000.0 nM
[4] = biological target: Serine/threonine-protein kinase Nek4 (Homo sapiens) (UniProt P51957); conditions: Compound concentration 1000.0 nM
[5] = biological target: Mitogen-activated protein kinase 8 (Homo sapiens) (UniProt P45983); conditions: Compound concentration 1000.0 nM
[6] = biological target: Mast/stem cell growth factor receptor Kit (Homo sapiens) (UniProt P10721); conditions: Compound concentration 1000.0 nM
[7] = biological target: Dual specificity mitogen-activated protein kinase kinase 7 (Homo sapiens) (UniProt O14733); conditions: Compound concentration 1000.0 nM
[8] = biological target: Mitogen-activated protein kinase kinase kinase 5 (Homo sapiens) (UniProt Q99683); conditions: Compound concentration 1000.0 nM
[9] = biological target: Serine/threonine-protein kinase RIO1 (Homo sapiens) (UniProt Q9BRS2); conditions: Compound concentration 1000.0 nM
[10] = biological target: Calcium-dependent protein kinase 1 (Plasmodium falciparum) (UniProt P62344); conditions: Compound concentration 1000.0 nM
[11] = biological target: Cyclin-dependent kinase 11B (Homo sapiens) (UniProt P21127); conditions: Compound concentration 1000.0 nM
[12] = biological target: Ephrin type-A receptor 3 (Homo sapiens) (UniProt P29320); conditions: Compound concentration 1000.0 nM
[13] = biological target: RAC-gamma serine/threonine-protein kinase (Homo sapiens) (UniProt Q9Y243); conditions: Compound concentration 1000.0 nM
[14] = biological target: Serine/threonine-protein kinase PLK1 (Homo sapiens) (UniProt P53350); conditions: Compound concentration 1000.0 nM
[15] = biological target: STE20/SPS1-related proline-alanine-rich protein kinase (Homo sapiens) (UniProt Q9UEW8); conditions: Compound concentration 1000.0 nM
[16] = system: Mast/stem cell growth factor receptor Kit (Homo sapiens), P10721 [V559D,T670I]; conditions: Compound concentration 1000.0 nM
[17] = biological target: Serine/threonine-protein kinase Nek1 (Homo sapiens) (UniProt Q96PY6); conditions: Compound concentration 1000.0 nM
[18] = biological target: Non-receptor tyrosine-protein kinase TYK2 (Homo sapiens) (UniProt P29597); conditions: Compound concentration 1000.0 nM
[19] = biological target: Ankyrin repeat and protein kinase domain-containing protein 1 (Homo sapiens) (UniProt Q8NFD2); conditions: Compound concentration 1000.0 nM
[20] = biological target: Phosphatidylinositol 3-kinase catalytic subunit type 3 (Homo sapiens) (UniProt Q8NEB9); conditions: Compound concentration 1000.0 nM
[21] = biological target: D(4) dopamine receptor (Homo sapiens) (UniProt P21917); conditions: Compound concentration 10.0 uM
[22] = biological target: Mitogen-activated protein kinase kinase kinase kinase 5 (Homo sapiens) (UniProt Q9Y4K4); conditions: Compound concentration 1000.0 nM
[23] = biological target: Cyclin-dependent kinase-like 3 (Homo sapiens) (UniProt Q8IVW4); conditions: Compound concentration 1000.0 nM
[24] = biological target: Activin receptor type-1-like (Homo sapiens) (UniProt P37023); conditions: Compound concentration 1000.0 nM
[25] = biological target: Serine/threonine-protein kinase STK11 (Homo sapiens) (UniProt Q15831); conditions: Compound concentration 1000.0 nM
[26] = biological target: Bone morphogenetic protein receptor type-1B (Homo sapiens) (UniProt O00238); conditions: Compound concentration 1000.0 nM
[27] = biological target: Ephrin type-A receptor 4 (Homo sapiens) (UniProt P54764); conditions: Compound concentration 1000.0 nM
[28] = biological target: Tyrosine-protein kinase Fyn (Homo sapiens) (UniProt P06241); conditions: Compound concentration 1000.0 nM
[29] = biological target: Cytoplasmic tyrosine-protein kinase BMX (Homo sapiens) (UniProt P51813); conditions: Compound concentration 1000.0 nM
[30] = biological target: Serine/threonine-protein kinase LATS1 (Homo sapiens) (UniProt O95835); conditions: Compound concentration 1000.0 nM
[31] = biological target: SRSF protein kinase 3 (Homo sapiens) (UniProt Q9UPE1); conditions: Compound concentration 1000.0 nM
[32] = system: Receptor-type tyrosine-protein kinase FLT3 (Homo sapiens), P36888 [R834Q]; conditions: Compound concentration 1000.0 nM
[33] = biological target: Serine/threonine-protein kinase WNK1 (Homo sapiens) (UniProt Q9H4A3); conditions: Compound concentration 1000.0 nM
[34] = biological target: Mitogen-activated protein kinase kinase kinase 20 (Homo sapiens) (UniProt Q9NYL2); conditions: Compound concentration 1000.0 nM
[35] = biological target: LIM domain kinase 1 (Homo sapiens) (UniProt P53667); conditions: Compound concentration 1000.0 nM
[36] = biological target: Ribosomal protein S6 kinase beta-1 (Homo sapiens) (UniProt P23443); conditions: Compound concentration 1000.0 nM
[37] = biological target: Inhibitor of nuclear factor kappa-B kinase subunit alpha (Homo sapiens) (UniProt O15111); conditions: Compound concentration 1000.0 nM
[38] = biological target: Vascular endothelial growth factor receptor 1 (Homo sapiens) (UniProt P17948); conditions: Compound concentration 1000.0 nM
[39] = biological target: Cyclin-dependent kinase 4 (Homo sapiens) (UniProt P11802); conditions: Compound concentration 1000.0 nM
[40] = biological target: Cyclin-dependent kinase-like 2 (Homo sapiens) (UniProt Q92772); conditions: Compound concentration 1000.0 nM
[41] = biological target: Ribosomal protein S6 kinase alpha-6 (Homo sapiens) (UniProt Q9UK32); conditions: Compound concentration 1000.0 nM
[42] = system: ALK tyrosine kinase receptor (Homo sapiens), Q9UM73 [C1156Y]; conditions: Compound concentration 1000.0 nM
[43] = biological target: Wee1-like protein kinase 2 (Homo sapiens) (UniProt P0C1S8); conditions: Compound concentration 1000.0 nM
[44] = biological target: Serine/threonine-protein kinase Sgk1 (Homo sapiens) (UniProt O00141); conditions: Compound concentration 1000.0 nM
[45] = biological target: MAP kinase-activated protein kinase 5 (Homo sapiens) (UniProt Q8IW41); conditions: Compound concentration 1000.0 nM

Mast/stem cell growth factor receptor Kit (Homo sapiens), sequence (P10721 whole entry): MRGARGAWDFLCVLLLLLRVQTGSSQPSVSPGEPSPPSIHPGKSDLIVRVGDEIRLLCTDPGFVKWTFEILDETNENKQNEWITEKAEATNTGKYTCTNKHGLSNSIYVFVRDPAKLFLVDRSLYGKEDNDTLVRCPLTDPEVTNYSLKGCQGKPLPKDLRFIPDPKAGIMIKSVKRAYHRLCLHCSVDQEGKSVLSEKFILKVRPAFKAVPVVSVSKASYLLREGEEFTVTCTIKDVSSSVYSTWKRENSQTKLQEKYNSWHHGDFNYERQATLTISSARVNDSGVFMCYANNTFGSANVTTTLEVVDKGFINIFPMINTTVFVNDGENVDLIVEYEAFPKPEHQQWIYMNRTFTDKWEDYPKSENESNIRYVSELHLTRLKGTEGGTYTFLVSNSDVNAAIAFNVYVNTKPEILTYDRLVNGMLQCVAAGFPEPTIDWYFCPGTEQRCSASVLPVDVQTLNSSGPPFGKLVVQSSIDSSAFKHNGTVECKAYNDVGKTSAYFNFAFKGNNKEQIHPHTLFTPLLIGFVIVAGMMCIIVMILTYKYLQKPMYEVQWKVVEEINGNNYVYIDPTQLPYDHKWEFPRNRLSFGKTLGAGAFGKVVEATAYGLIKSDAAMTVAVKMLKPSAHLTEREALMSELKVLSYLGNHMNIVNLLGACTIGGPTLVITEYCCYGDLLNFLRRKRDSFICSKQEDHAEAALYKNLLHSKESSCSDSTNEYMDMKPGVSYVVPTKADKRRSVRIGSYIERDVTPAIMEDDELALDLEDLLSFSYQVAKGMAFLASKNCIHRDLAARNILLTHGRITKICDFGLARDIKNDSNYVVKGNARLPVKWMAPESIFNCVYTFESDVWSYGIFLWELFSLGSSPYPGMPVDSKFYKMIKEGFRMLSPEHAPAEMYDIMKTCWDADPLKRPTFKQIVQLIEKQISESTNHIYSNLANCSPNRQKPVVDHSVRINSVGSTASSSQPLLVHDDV
Serine/threonine-protein kinase STK11 (Homo sapiens), sequence (Q15831 whole entry): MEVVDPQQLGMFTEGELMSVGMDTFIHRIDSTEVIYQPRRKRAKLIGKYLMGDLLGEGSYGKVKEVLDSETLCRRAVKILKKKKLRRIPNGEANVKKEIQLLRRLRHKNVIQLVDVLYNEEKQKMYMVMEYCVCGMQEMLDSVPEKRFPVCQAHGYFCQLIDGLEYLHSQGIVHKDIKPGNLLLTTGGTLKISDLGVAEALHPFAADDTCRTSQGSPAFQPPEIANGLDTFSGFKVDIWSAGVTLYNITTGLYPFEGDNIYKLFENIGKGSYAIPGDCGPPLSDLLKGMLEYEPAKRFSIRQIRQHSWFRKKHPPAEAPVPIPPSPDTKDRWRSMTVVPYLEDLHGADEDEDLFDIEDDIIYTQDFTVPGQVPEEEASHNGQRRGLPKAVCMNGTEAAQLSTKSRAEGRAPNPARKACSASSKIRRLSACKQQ
Serine/threonine-protein kinase ICK (Homo sapiens), sequence (Q9UPZ9 whole entry): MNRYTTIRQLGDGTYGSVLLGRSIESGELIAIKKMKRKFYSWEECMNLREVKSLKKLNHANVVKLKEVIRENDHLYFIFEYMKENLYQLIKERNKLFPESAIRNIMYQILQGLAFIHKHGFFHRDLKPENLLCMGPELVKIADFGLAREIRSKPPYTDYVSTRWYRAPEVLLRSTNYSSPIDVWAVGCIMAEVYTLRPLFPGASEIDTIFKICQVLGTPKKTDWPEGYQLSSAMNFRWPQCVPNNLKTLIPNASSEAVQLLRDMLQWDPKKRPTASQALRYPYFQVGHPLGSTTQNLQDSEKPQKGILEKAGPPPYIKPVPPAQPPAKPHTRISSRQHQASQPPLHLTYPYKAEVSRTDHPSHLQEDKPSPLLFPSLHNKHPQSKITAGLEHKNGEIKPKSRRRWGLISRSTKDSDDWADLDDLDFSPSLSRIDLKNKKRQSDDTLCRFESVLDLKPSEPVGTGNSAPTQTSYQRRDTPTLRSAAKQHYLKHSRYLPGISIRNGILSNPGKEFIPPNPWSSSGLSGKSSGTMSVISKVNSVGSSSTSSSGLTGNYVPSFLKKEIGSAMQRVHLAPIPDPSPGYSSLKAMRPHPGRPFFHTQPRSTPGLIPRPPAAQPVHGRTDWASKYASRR
Tyrosine-protein kinase Fyn (Homo sapiens), sequence (P06241 2-537 limits assumed): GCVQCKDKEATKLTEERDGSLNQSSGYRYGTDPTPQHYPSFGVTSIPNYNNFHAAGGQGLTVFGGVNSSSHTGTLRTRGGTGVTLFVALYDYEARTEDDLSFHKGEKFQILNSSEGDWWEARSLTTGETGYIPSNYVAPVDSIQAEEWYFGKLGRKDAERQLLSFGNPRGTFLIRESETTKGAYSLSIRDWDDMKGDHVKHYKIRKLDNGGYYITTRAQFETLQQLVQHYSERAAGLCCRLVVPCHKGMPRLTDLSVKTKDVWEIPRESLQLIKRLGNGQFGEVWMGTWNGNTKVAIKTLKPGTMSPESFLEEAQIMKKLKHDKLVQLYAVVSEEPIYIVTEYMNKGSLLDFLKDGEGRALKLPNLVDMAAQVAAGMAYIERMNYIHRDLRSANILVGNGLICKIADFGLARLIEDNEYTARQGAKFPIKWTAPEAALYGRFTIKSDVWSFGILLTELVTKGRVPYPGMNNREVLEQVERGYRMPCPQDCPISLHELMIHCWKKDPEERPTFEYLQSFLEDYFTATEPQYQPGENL
Serine/threonine-protein kinase WNK1 (Homo sapiens), sequence (Q9H4A3 whole entry, looked up): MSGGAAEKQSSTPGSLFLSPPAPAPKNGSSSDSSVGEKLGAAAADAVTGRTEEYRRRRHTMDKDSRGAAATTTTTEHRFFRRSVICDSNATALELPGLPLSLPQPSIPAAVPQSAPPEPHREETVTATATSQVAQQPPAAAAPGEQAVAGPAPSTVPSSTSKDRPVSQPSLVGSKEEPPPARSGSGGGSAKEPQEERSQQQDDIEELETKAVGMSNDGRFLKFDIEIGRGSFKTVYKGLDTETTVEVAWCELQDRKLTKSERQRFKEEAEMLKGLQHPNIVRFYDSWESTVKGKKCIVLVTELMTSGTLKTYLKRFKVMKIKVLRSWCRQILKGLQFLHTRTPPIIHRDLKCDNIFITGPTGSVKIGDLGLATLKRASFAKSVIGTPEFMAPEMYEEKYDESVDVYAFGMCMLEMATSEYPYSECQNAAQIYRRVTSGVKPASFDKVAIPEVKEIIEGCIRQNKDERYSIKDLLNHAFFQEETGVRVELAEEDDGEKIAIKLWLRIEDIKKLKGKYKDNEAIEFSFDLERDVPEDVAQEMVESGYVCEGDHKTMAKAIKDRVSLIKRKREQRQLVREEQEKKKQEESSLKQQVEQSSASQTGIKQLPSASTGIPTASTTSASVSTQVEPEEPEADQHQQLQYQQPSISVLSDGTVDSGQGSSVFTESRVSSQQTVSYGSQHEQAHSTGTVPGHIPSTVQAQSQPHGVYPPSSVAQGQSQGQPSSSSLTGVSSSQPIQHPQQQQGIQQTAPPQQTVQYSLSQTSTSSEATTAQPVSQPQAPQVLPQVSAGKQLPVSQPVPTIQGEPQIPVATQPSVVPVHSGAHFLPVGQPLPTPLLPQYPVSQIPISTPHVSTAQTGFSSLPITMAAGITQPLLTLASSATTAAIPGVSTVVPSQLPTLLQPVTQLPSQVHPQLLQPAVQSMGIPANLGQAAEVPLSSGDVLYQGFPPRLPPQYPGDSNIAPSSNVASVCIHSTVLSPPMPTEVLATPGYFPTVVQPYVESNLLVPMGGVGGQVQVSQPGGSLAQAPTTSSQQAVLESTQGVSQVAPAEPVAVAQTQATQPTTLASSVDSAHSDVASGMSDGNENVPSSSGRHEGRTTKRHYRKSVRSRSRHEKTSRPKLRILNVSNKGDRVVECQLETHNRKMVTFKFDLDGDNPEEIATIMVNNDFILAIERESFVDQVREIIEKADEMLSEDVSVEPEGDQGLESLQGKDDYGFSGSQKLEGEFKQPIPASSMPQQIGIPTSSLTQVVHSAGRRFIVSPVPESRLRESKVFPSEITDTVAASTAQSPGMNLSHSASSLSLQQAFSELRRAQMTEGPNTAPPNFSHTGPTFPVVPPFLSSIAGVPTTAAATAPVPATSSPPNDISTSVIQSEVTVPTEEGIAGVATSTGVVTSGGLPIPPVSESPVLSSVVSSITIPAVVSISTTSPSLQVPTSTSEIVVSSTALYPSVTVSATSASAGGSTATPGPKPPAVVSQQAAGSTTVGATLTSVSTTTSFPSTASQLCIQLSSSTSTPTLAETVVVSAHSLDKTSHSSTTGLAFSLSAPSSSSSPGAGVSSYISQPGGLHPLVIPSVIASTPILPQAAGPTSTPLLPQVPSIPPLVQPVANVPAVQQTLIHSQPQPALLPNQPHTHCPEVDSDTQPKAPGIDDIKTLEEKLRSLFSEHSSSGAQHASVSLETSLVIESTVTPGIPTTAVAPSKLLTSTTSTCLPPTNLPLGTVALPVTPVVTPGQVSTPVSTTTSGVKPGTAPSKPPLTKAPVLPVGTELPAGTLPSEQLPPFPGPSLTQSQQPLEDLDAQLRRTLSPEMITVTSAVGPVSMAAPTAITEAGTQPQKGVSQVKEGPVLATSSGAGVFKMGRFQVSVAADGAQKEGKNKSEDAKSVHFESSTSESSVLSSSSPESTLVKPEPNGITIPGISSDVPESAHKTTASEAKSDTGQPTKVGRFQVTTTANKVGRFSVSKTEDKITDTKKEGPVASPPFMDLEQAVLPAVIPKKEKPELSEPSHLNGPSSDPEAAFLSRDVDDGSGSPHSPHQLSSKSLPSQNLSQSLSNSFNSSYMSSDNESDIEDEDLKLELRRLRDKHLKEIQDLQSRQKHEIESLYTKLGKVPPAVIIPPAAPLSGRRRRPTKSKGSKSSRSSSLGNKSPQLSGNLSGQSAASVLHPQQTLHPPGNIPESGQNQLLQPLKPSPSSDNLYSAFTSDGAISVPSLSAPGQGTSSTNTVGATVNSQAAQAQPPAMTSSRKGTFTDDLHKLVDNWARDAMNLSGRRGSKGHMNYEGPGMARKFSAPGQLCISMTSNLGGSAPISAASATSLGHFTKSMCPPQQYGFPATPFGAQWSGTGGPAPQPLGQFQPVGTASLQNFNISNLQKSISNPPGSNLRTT
Mast/stem cell growth factor receptor Kit (Homo sapiens), P10721 [V559D,T670I], sequence (P10721 whole entry V559D/T670I): as the sequence (P10721 whole entry) above, with V559D, T670I counted along it

CC(C)(O)c1cncc(-c2nc3ccc(F)cc3n2C2CC2)c1 [MSD-CYP11B2]
inactive: residual activity [1] 100% | residual activity [2] 100% | residual activity [3] 100% | residual activity [4] 100% | residual activity [5] 100% | residual activity [6] 86% | residual activity [7] 100% | residual activity [8] 100% | residual activity [9] 100% | residual activity [10] 100% | residual activity [11] 100% | residual activity [12] 100% | residual activity [13] 100% | residual activity [14] 100% | residual activity [15] 100% | residual activity [16] 100% | residual activity [17] 100% | residual activity [18] 100% | residual activity [19] 100% | residual activity [20] 100% | inhibition [21] -5.72% | residual activity [22] 92% | residual activity [23] 84% | residual activity [24] 100% | residual activity [25] 98% | residual activity [26] 96% | residual activity [27] 100% | residual activity [28] 100% | residual activity [29] 100% | residual activity [30] 82% | residual activity [31] 100% | residual activity [32] 100% | residual activity [33] 100% | residual activity [34] 100% | residual activity [35] 100% | residual activity [36] 100% | residual activity [37] 100% | residual activity [38] 100% | residual activity [39] 100% | residual activity [40] 97% | residual activity [41] 100% | residual activity [42] 100% | residual activity [43] 100% | residual activity [44] 100% | residual activity [45] 100%

FC(F)(F)c1ccc2c(c1)nc(-c1cccnc1)n2C1CC1 [MSD-CYP11B2-Negative-control]
inactive: residual activity [1] 100% | residual activity [2] 100% | residual activity [3] 100% | residual activity [4] 100% | residual activity [5] 93% | residual activity [6] 85% | residual activity [7] 100% | residual activity [8] 96% | residual activity [9] 100% | residual activity [10] 100% | residual activity [11] 100% | residual activity [12] 100% | residual activity [13] 100% | residual activity [14] 96% | residual activity [15] 100% | residual activity [16] 100% | residual activity [17] 100% | residual activity [18] 100% | residual activity [19] 100% | residual activity [20] 100% | inhibition [21] -3.28% | residual activity [22] 100% | residual activity [23] 96% | residual activity [24] 100% | residual activity [25] 100% | residual activity [26] 83% | residual activity [27] 100% | residual activity [28] 100% | residual activity [29] 100% | residual activity [30] 86% | residual activity [31] 100% | residual activity [32] 100% | residual activity [33] 100% | residual activity [34] 100% | residual activity [35] 100% | residual activity [36] 100% | residual activity [37] 100% | residual activity [38] 100% | residual activity [39] 100% | residual activity [40] 100% | residual activity [41] 100% | residual activity [42] 100% | residual activity [43] 100% | residual activity [44] 100% | residual activity [45] 97%

— ChEMBL document CHEMBL4507294, “Data for DCP probe MSD-CYP11B2” (2021)
